The record followed here is patent publication US20230098637A1, “PROGNOSTIC PATHWAYS FOR HIGH RISK SEPSIS PATIENTS” (InnoSIGN B.V., priority 2020, published 2023).

Entries after “also recorded” stand apart in the source; their conditions may differ.

Assay type in all cases: cell-based
Test [1] concerns AR cellular signaling pathway. The test can be described thus: AR inhibitor experiment in LPS-stimulated monocytes (THP1), AR pathway activity. The note with it: THP1 monocytes cultured 24 hours with or without LPS, then with or without DHT. The method, then: (§1) FIG. 35 Schematic overview of AR inhibitor experiment. Depicts the experimental setup to determine if AR inhibitors can be used to mitigate the effect of LPS on monocytes (THP1 cells). In brief, monocyte cells (THP1) are cultured for 24 hours with or without LPS, after which the medium is changed and both conditions are subsequently cultured with or without DHT. Both LPS and DHT are anticipated to activate the AR cellular signaling pathway. In a parallel experiment, THP1 cells are first cultured for 24 hours with LPS, after which the medium is changed and the cells are cultured with one of ARCC-4, ARD-266, A-458 and bicalutamide.
(§2) FIG. 35 describes the experimental set-up used. In brief, monocyte cells (THP1) are cultured for 24 hours with or without LPS, after which the medium is changed and both conditions are subsequently cultured with or without DHT. Both LPS and DHT are anticipated to activate the AR cellular signaling pathway. In a parallel experiment, THP1 cells are first cultured for 24 hours with LPS, after which the medium is changed and the cells are cultured with one of ARCC-4, ARD-266, A-458 and bicalutamide.
(§3) All experimental conditions were subjected to cellular signaling pathways analysis.

Test [2] relates to ER cellular signaling pathway. The test can be described thus: AR inhibitor experiment in LPS-stimulated monocytes (THP1), ER pathway activity. The following applies: THP1 monocytes cultured 24 hours with or without LPS, then with or without DHT. As for the experimental part:
as §1, §2, §3

For test [3], the system named is HH (Hedgehog) cellular signaling pathway. The experiment in a line: AR inhibitor experiment in LPS-stimulated monocytes (THP1), HH pathway activity. The note with it: THP1 monocytes cultured 24 hours with or without LPS, then with or without DHT. The method, then:
as §1, §2, §3

Test [4] concerns TGFbeta cellular signaling pathway. The test can be described thus: AR inhibitor experiment in LPS-stimulated monocytes (THP1), TGFbeta pathway activity. The following applies: THP1 monocytes cultured 24 hours with or without LPS, then with or without DHT. As for the experimental part: as §1, §2, §3
Test [5] concerns AR pathway. The experiment in a line: LPS stimulation of THP-1 cells, AR pathway activity (qPCR OncoSignal). The note with it: LPS from E. coli 10, 50, 100 ng/ml, 24 hours, vs control. The method, then:
(§4) To study the inflammation process we stimulated the monocytic THP-1 cells (ATCC® TIB-202™) using 3 different concentrations of LPS originated from E. coli ([…], 10 ng/ml, 50 ng/ml and 100 ng/ml) into culture medium (DMEM, supplemented with 10% FBS, 1% glutamax and 1% pen strep at 37° C. 5% CO2.) of THP-1 for 24 hours. After stimulation cells were harvested and RNA was extracted using the RNeasy mini kit (Qiagen, 74104). qPCR was performed using the Philips Research OncoSignal platform. […] The activation of the AR and TGFBeta pathways was also seen in sepsis samples confirms the role of these pathways in inflammation.
A general note: Quantitative PCR measures a nucleic acid by following its amplification.

Test [6] concerns FOXO pathway. The test can be described thus: LPS stimulation of THP-1 cells, FOXO pathway activity. The following applies: LPS from E. coli 10, 50, 100 ng/ml, 24 hours, vs control. As for the experimental part: as §4
In test [7] the test system is TGFBeta pathway. The test can be described thus: LPS stimulation of THP-1 cells, TGFBeta pathway activity. The note with it: LPS from E. coli 10, 50, 100 ng/ml, 24 hours, vs control. The method, then: as §4
Test [8] relates to WNT pathway. The test can be described thus: LPS stimulation of THP-1 cells, WNT pathway activity. The note with it: LPS from E. coli 10, 50, 100 ng/ml, 24 hours, vs control. As for the experimental part:
as §4

With `C[C@]12CCC(=O)C[C@@H]1CC[C@@H]1[C@@H]2CC[C@]2(C)[C@@H](O)CC[C@@H]12` [DHT], the “AR cellular signaling pathway activity” value in test [1] is given as “increase”. Further, in test [2], the “ER cellular signaling pathway activity” value is reported as “not substantially affected”. The “HH cellular signaling pathway activity” value in test [3] was “not substantially affected”. Further, the “TGFbeta cellular signaling pathway activity” value in test [4] is listed as “did not increase”.

Regarding lipopolysaccharide [LPS], the AR pathway activity result in test [5] is “increased”. Further, the FOXO pathway activity result in test [6] is “increased”. The TGFBeta pathway activity entry in test [7] is recorded as “increased”. Moreover, the WNT pathway activity result in test [8] is “increased”. Further, the “AR cellular signaling pathway activity” value in test [1] is reported as “able to stimulate; also recorded: increase”. Besides, the “ER cellular signaling pathway activity” value in test [2] is listed as “not substantially affected”. For the same compound, the “HH cellular signaling pathway activity” value in test [3] is reported as “not substantially affected”. In addition, the “TGFbeta cellular signaling pathway activity” value in test [4] is on record as “increased”.
